# Assay results: patent publication US20110008465A1, “SESQUITERPENE FORMULATIONS, KITS AND METHODS OF USE THEREOF” (priority 2007, published 2011)
# Key:
# [1] = system: Panc 05.04 (pancreas cancer); assay: Chou and Talalay combination assay with beta-caryophyllene; format: cell-based, Human; conditions: in combination with beta-caryophyllene in ethanol (40-150 mM), 48 h
# Method: Agent: […] Each solution was prepared fresh and use within 1 hour after preparation. 5 μL of each test article were added to 1 mL of culture medium for a final concentration of 0.5% of solvent and this concentration have no toxic effect on cells. Cells: The Panc 05.04 cell line was used. Cells were harvested using trypsine-EDTA. […] Cells were plated in 96-well microplates (BD Falcon) at a density of 7.5×10^3 cells per well for Chou and Talalay assay in 100 μL of culture medium and were allowed to adhere for 24 hours before treatment. Proliferation assay: Increasing concentrations of the anticancer agents and/or beta-caryophyllene were added to 96-well plate (100 μL per well). The final concentration of solvent in the culture medium was maintained below 0.5% (volume/volume) to avoid solvent toxicity. […] The cells were incubated for 48 h at 37° C. and 5% CO2. Cytotoxicity was assessed using the resazurin reduction test (8). […] Resazurin was then removed. Data analysis: Results were analyzed using the Chou and Talalay method (9) and may be interpreted as follow: […]
# MCF-7 = assay: Cytotoxicity of alpha-humulene and isocaryophyllene alone or combined with beta-caryophyllene; format: cell-based, human
# Method: Combinations of beta-caryophyllene and two other antitumor agents, isocaryophyllene and α-humulene, were also tested as described above with some adaptations. 5×10^3 cells per well were allowed to adhere for 16 hours before treatment. The final concentration of solvent in the culture medium was maintained at 0.5% (volume/volume) to avoid toxicity. These combinations were tested on MCF-7.
# tumor cell lines = assay: Comparative potentiating effect of beta-caryophyllene and Tesmilifene (DPPE) combined with 5 antitumor classes; format: cell-based
# Method: (§1) Each solution was prepared fresh and use within 1 hour after preparation.
# (§2) Cells were then harvested using trypsine-EDTA. Cells were counted using a hemocytometer and resuspended in DMEM+10% FBS medium.
# (§3) Proliferation assay: Increasing concentrations of the anticancer agents and/or beta-caryophyllene were added to 96-well plate (100 μL per well). The final concentration of solvent in the culture medium was maintained below 0.5% (volume/volume) to avoid solvent toxicity.
# (§4) The cells were incubated for 48 h at 37° C. and 5% CO2. Cytotoxicity was assessed using the resazurin reduction test (O'Brien et al., 2000). Fluorescence was measured on an automated 96-well Fluoroskan Ascent FI™ plate reader (Labsystems) using excitation and emission wavelengths of 530 nm and 590 nm, respectively. Resazurin was then removed.
# (§5) Microplates were frozen at −20° C. overnight. Plates were thawed, a volume of 100 μl of 0.01% SDS in water was added to the wells, the plates were shaken at room temperature for 3 hours and then frozen once more at −20° C. overnight. […] Plates were shaken in the dark (at room temperature) for at least 2 hours, and fluorescence was measured on an automated 96-well Fluoroskan Ascent FI™ plate reader (Labsystems) using excitation and emission wavelengths of 360 nm and 460 nm, respectively.
# (§6) Results were analyzed using the Chou and Talalay method (9) and may be interpreted as follow: Cl>1 represents an antagonist effect of beta-caryophyllene with the corresponding anticancer agent; Cl=1 represents an additive effect of beta-caryophyllene with the corresponding anticancer agent; Cl<1 represents a potentiating effect of beta-caryophyllene with the corresponding anticancer agent.
# [2] = system: B16-F1 mouse skin melanoma
# Method: Formulations: Two formulations were used for this study. The first one was prepared for groups treated with paclitaxel alone while the other one was prepared for the paclitaxel/caryophyllene combination (Table 5). […] These solutions were further diluted with 19 mL of a solution containing soya lecithin (2.85 mL), glycerol (0.95 mL) and polysorbate 80 (380 μL) in water (14.82 mL). Each solution was prepared fresh and used within 30 minutes after preparation (see Table 5 below for presenting formulations).
# Mice: All the experiments were carried out using B6D2F1 male mice, 6-weeks old (Charles Rivers Inc., St-Constant, QC). They were handled and cared for in accordance with the Guide for the Care and Use of Laboratory Animals.
# Cells (passages #7 to 21) were grown to 90% confluence in complete MEM medium containing Earle's salts and L-glutamine (Mediatech Cellgro, Va.), 10% fetal bovine serum (Hyclone), vitamins (1×), penicillin (100 I.U./mL) and streptomycin (100 μg/mL), essential amino acids (1×) and sodium pyruvate (1×) (Mediatech Cellgro, Va.). Cells were then harvested using 0.5% trypsin-EDTA (Mediatech Cellgro, Va.). Cells were counted using a hemacytometer and resuspended in MEM medium without SVF. 100 μL of a solution containing […] per well were inoculated subcutaneously in each mice.
# Administration: To establish animal tumor models, 2.5×10^6 cells were resuspended in 100 μL of MEM medium without SVF (Mediatech Cellgro, Va.) and injected into the subcutaneous tissue of the right flank of the mice on day zero. […] Treatments by intravenous injections (tail vein) were performed on days 7, 10, 13.
# Data analysis: Antitumor activity was evaluated according to two parameters as follows:
# CTW values were averaged within each group during and after drug treatment over a period of 17 days post-tumor implant. […] Values of p<0.05 were considered statistically significant.
# [3] = system: U-251 (human glioblastoma); assay: Chou and Talalay combination assay with beta-caryophyllene; format: cell-based; conditions: anticancer drug in combination with beta-caryophyllene; Chou and Talalay CI; 48 h
# Method: as §1, §2, §3, §4, §5, §6
# [4] = system: GL-261 (murine glioblastoma); assay: as above; format: cell-based; conditions: anticancer drug in combination with beta-caryophyllene; Chou and Talalay CI; 48 h
# Method: as §1, §2, §3, §4, §5, §6
# MEL-2 (human melanoma) = assay: as above; format: cell-based; conditions: anticancer drug in combination with beta-caryophyllene; Chou and Talalay CI; 48 h
# Method: as §1, §2, §3, §4, §5, §6
# B16 (murine melanoma) = assay: as above; format: cell-based; conditions: anticancer drug in combination with beta-caryophyllene; Chou and Talalay CI; 48 h
# Method: as §1, §2, §3, §4, §5, §6
# PC-3 (prostate cancer) = assay: as above; format: cell-based, human; conditions: anticancer drug in combination with beta-caryophyllene; Chou and Talalay CI; 48 h
# Method: as §1, §2, §3, §4, §5
# [5] = system: MDA-MB-231 (breast cancer); assay: as above; format: cell-based, human; conditions: anticancer drug in combination with beta-caryophyllene; Chou and Talalay CI; 48 h
# Method: as §1, §2, §3, §4, §5, §6
# PA-1 (ovary cancer) = assay: as above; format: cell-based, human; conditions: anticancer drug in combination with beta-caryophyllene; Chou and Talalay CI; 48 h
# Method: as §1, §2, §3, §4, §5, §6
# MCF-7 (breast cancer) = assay: as above; format: cell-based, human; conditions: anticancer drug in combination with beta-caryophyllene; Chou and Talalay CI; 48 h
# Method: as §1, §2, §3, §4, §5, §6
# DLD-1 (colon cancer) = assay: as above; format: cell-based, human; conditions: anticancer drug in combination with beta-caryophyllene; Chou and Talalay CI; 48 h
# Method: as §1, §2, §3, §4, §5, §6
# A-549 (lung cancer) = assay: as above; format: cell-based, human; conditions: anticancer drug in combination with beta-caryophyllene; Chou and Talalay CI; 48 h
# Method: as §1, §2, §3, §4, §5, §6
# [6] = combined with 10 μg/ml of beta-caryophyllene
# [7] = paclitaxel 2 mg/kg, beta-caryophyllene 1%, i.v. days 7, 10, 13
smiles,measurement,setting,value
CCc1c2c(nc3ccc(OC(=O)N4CCC(N5CCCCC5)CC4)cc13)-c1cc3c(c(=O)n1C2)COC(=O)[C@]3(O)CC [Irinotecan],Potentiating activity Panc 05.04,[1],Potentiating > IC50
"C/C1=C\CC/C(C)=C/CC(C)(C)/C=C/C1 [∝-humulene, α-humulene]",IC50,MCF-7; [6],15 mg/L
same,IC50,MCF-7; used alone,25 mg/L
"C=C1CC/C=C(\C)CC[C@@H]2[C@@H]1CC2(C)C [beta-caryophyllene, (1R,4E,9S)-4-11,11-trimethyl-8-methylenebicyclo[7.2.0]undec-4-ene]",effect on anticancer activity of alpha-humulene and isocaryophyllene,MCF-7; beta-caryophyllene 2.5 to 40 μg/ml,increases significantly anticancer activity
same,Alkylating agents %,tumor cell lines; class (1) Very High,50%
same,Alkylating agents Total (60),tumor cell lines; class (1) Very High,30
same,Antimitotic agents %,tumor cell lines; class (1) Very High,60%
same,Antimitotic agents Total (40),tumor cell lines; class (1) Very High,24
same,RNA/DNA antimetabolites %,tumor cell lines; class (1) Very High,30%
same,RNA/DNA antimetabolites Total (20),tumor cell lines; class (1) Very High,6
same,Topoisomerase II inhibitors %,tumor cell lines; class (1) Very High,33%
same,Topoisomerase II inhibitors Total (40),tumor cell lines; class (1) Very High,13
same,kinase inhibitors %,tumor cell lines; class (1) Very High,35%
same,kinase inhibitors Total (20),tumor cell lines; class (1) Very High,7
same,Alkylating agents %,tumor cell lines; class (2) High,15%
same,Alkylating agents Total (60),tumor cell lines; class (2) High,9
same,Antimitotic agents %,tumor cell lines; class (2) High,15%
same,Antimitotic agents Total (40),tumor cell lines; class (2) High,6
same,RNA/DNA antimetabolites %,tumor cell lines; class (2) High,20%
same,RNA/DNA antimetabolites Total (20),tumor cell lines; class (2) High,4
same,Topoisomerase II inhibitors %,tumor cell lines; class (2) High,18%
same,Topoisomerase II inhibitors Total (40),tumor cell lines; class (2) High,7
same,kinase inhibitors %,tumor cell lines; class (2) High,30%
same,kinase inhibitors Total (20),tumor cell lines; class (2) High,6
same,Alkylating agents %,tumor cell lines; class (3) Moderate,23%
same,Alkylating agents Total (60),tumor cell lines; class (3) Moderate,14
same,Antimitotic agents %,tumor cell lines; class (3) Moderate,23%
same,Antimitotic agents Total (40),tumor cell lines; class (3) Moderate,9
same,RNA/DNA antimetabolites %,tumor cell lines; class (3) Moderate,15%
same,RNA/DNA antimetabolites Total (20),tumor cell lines; class (3) Moderate,3
same,Topoisomerase II inhibitors %,tumor cell lines; class (3) Moderate,28%
same,Topoisomerase II inhibitors Total (40),tumor cell lines; class (3) Moderate,11
same,kinase inhibitors %,tumor cell lines; class (3) Moderate,20%
same,kinase inhibitors Total (20),tumor cell lines; class (3) Moderate,4
same,Alkylating agents %,tumor cell lines; class (4) Weak,4%
same,Alkylating agents Total (60),tumor cell lines; class (4) Weak,2
same,Antimitotic agents %,tumor cell lines; class (4) Weak,3%
same,Antimitotic agents Total (40),tumor cell lines; class (4) Weak,1
same,RNA/DNA antimetabolites %,tumor cell lines; class (4) Weak,10%
same,RNA/DNA antimetabolites Total (20),tumor cell lines; class (4) Weak,2
same,Topoisomerase II inhibitors %,tumor cell lines; class (4) Weak,10%
same,Topoisomerase II inhibitors Total (40),tumor cell lines; class (4) Weak,4
same,kinase inhibitors %,tumor cell lines; class (4) Weak,5%
same,kinase inhibitors Total (20),tumor cell lines; class (4) Weak,1
same,Alkylating agents %,tumor cell lines; class (5) Additive effect,0%
same,Alkylating agents Total (60),tumor cell lines; class (5) Additive effect,0
same,Antimitotic agents %,tumor cell lines; class (5) Additive effect,0%
same,Antimitotic agents Total (40),tumor cell lines; class (5) Additive effect,0
same,RNA/DNA antimetabolites %,tumor cell lines; class (5) Additive effect,0%
same,RNA/DNA antimetabolites Total (20),tumor cell lines; class (5) Additive effect,0
same,Topoisomerase II inhibitors %,tumor cell lines; class (5) Additive effect,8%
same,Topoisomerase II inhibitors Total (40),tumor cell lines; class (5) Additive effect,3
same,kinase inhibitors %,tumor cell lines; class (5) Additive effect,5%
same,kinase inhibitors Total (20),tumor cell lines; class (5) Additive effect,1
same,Alkylating agents %,tumor cell lines; class (6) Antagonist effect,7%
same,Alkylating agents Total (60),tumor cell lines; class (6) Antagonist effect,4
same,Antimitotic agents %,tumor cell lines; class (6) Antagonist effect,0%
same,Antimitotic agents Total (40),tumor cell lines; class (6) Antagonist effect,0
same,RNA/DNA antimetabolites %,tumor cell lines; class (6) Antagonist effect,25%
same,RNA/DNA antimetabolites Total (20),tumor cell lines; class (6) Antagonist effect,5
same,Topoisomerase II inhibitors %,tumor cell lines; class (6) Antagonist effect,5%
same,Topoisomerase II inhibitors Total (40),tumor cell lines; class (6) Antagonist effect,2
same,kinase inhibitors %,tumor cell lines; class (6) Antagonist effect,5%
same,kinase inhibitors Total (20),tumor cell lines; class (6) Antagonist effect,1
same,drugs exhibiting a potentiating effect when combined,tumor cell lines; drugs tested at their IC50 values,91%
same,effect on tumor growth (in words),"[2]; B16 melanoma-bearing mice, i.v. days 7, 10, 13",do not significantly inhibit tumor growth
same,Observations: animals surviving on day 17,"[2]; male, B6D2F1, mouse, in vivo, 17 day",08/08 animals
same,Treated/Control (%) on day 13,[2]; [7],95%
same,Treated/Control (%) on day 14,[2]; [7],100%
same,Treated/Control (%) on day 15,[2]; [7],89%
same,Treated/Control (%) on day 16,[2]; [7],91%
same,Treated/Control (%) on day 17,[2]; [7],111%
"CC[C@@]1(O)C(=O)OCc2c1cc1n(c2=O)Cc2cc3ccccc3nc2-1 [Camptothecin, camptothecin]",Potentiating activity Panc 05.04,[1],Potentiating > IC60
O=C1c2c(O)ccc(O)c2C(=O)c2c(NCCNCCO)ccc(NCCNCCO)c21 [Mitoxantrone],Potentiating activity U-251,[3],(4) (Weak: 0.8 < CI < 1 to IC50)
same,Potentiating activity GL-261,[4],(1) (Very High: potentiating or additive activity to IC20 and CI < 0.6 to IC50)
same,Potentiating activity MEL-2,MEL-2 (human melanoma),(3) (Moderate: 0.5 < CI < 0.8 to IC50)
same,Potentiating activity B16,B16 (murine melanoma),(3) (Moderate: 0.5 < CI < 0.8 to IC50)
same,Potentiating activity PC-3,PC-3 (prostate cancer),(5) (Additive effect: CI = 1)
same,Potentiating activity MDA,[5],(3) (Moderate: 0.5 < CI < 0.8 at IC50)
same,Potentiating activity PA-1,PA-1 (ovary cancer),(2) (High: CI < 0.5 to IC50)
same,Potentiating activity MCF-7,MCF-7 (breast cancer),(1) (Very High: CI equal or below 1 at IC20 and Cl below 0.6 to IC50)
same,Potentiating activity DLD-1,DLD-1 (colon cancer),(5) (Additive effect: CI = 1)
same,Potentiating activity A-549,A-549 (lung cancer),(5) (Additive effect: CI = 1)
C=C1CC/C=C(/C)CC[C@@H]2[C@@H]1CC2(C)C [isocaryophyllene],IC50,MCF-7; [6],16 mg/L
same,IC50,MCF-7; used alone,30 mg/L
